Like-named read-outs stand apart in the source and are kept apart here. *1 amine or outer side, *2 acyl side, *3 side chain or, on linkers, in order; H or OH if unused. The star is where a group is joined. Fmoc = O=C(OCC1c2ccccc2-c2ccccc21)*; Glutaryl = O=C(CCCC(=O)[*:2])[*:1]
Columns and labels:
[1] = molecular target: T1, fibrin (in vitro human plasma clot) (Homo sapiens, UniProt P02671+P02675+P02679); test: Incorporation into human plasma clots in vitro; format: biochemical; conditions: for % specific uptake: % retained (with thrombin) - % retained (no thrombin); for % retained (no thrombin): control without thrombin and calcium chloride (non-specific binding); for % retained (with thrombin): human plasma clot, 60 minutes, ca. 20° C.
T1 construct: about 400 μl of human plasma containing the radiolabelled substrate; from tissue; host or cells: human plasma, clotted in vitro with added thrombin and calcium chloride
T1 sequence (P02671 20-644 isoform P02671-2 limits assumed): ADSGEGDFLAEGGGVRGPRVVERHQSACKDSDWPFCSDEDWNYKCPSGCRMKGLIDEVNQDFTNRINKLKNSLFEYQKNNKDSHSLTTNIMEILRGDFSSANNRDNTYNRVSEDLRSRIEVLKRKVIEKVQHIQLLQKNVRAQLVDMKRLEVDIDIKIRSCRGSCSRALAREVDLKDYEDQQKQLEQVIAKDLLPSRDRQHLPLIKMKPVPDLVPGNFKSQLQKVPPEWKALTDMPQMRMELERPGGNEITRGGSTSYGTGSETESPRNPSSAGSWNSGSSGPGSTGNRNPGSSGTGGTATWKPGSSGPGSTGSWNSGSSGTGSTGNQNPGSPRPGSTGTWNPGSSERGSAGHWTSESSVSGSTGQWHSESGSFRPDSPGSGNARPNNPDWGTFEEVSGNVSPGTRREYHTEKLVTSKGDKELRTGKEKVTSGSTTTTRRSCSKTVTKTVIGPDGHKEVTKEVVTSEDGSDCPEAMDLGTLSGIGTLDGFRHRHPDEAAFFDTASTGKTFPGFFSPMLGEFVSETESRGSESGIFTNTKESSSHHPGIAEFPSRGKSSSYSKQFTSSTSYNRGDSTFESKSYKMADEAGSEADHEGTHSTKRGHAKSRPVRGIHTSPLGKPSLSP
T1 sequence (P02675 45-491 limits assumed): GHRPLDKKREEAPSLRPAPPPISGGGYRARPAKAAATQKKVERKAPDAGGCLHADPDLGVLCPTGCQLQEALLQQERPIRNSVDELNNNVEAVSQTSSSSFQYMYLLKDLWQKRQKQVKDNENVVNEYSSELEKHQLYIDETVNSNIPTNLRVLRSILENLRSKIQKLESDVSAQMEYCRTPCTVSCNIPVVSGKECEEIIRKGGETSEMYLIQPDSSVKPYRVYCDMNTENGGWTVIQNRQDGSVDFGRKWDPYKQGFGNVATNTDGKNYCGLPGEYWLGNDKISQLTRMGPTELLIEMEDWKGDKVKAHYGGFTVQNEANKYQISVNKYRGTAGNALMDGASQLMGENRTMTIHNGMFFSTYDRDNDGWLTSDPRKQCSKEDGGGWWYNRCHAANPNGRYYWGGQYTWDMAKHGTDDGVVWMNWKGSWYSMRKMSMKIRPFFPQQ
T1 sequence (P02679 27-437 isoform P02679-2 limits assumed): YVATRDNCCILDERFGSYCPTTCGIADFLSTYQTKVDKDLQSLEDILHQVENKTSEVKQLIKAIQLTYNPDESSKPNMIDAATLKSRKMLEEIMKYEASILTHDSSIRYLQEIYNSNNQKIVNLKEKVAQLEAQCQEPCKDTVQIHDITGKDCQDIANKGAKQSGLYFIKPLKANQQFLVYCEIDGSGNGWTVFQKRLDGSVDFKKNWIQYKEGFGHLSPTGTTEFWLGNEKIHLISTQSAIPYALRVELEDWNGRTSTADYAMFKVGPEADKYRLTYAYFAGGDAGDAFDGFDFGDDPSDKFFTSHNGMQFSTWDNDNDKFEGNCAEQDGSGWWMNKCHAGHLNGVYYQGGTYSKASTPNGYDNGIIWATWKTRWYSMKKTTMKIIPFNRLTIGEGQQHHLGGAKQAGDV
Summary of the method: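 Human plasma containing radiolabelled substrate (typically 10 kBq/ml) clotted with thrombin in Tris-saline pH 7.5 with 4 mM CaCl2, 60 min at ca. 20 °C, then stopped with cold EDTA. Clots collected on nitrocellulose filters and washed; incorporation is filter-retained radioactivity fraction minus non-specific binding from thrombin/calcium-free controls.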

[2] = Incorporation into clots induced in a rat model (rat inferior vena cava model); format: in vivo, rat (Male Wistar); conditions: for % id/g (clot) / Rel. Conc. (cpm/g of clot by dose/g animal): sacrificed after 60 min
Summary of the method: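 Male Wistar rats (250–350 g) under 15% urethane anaesthesia, with the vena cava isolated by laparotomy. Compounds given 5 min (fresh clot) or 60 min (aged clot) after clot induction; clot, blood, lung and heart removed 60 min later, weighed and counted. Uptake expressed as cpm/g clot per dose/g animal and as clot-to-background tissue ratio.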

[3] = human, plasma, 2 h
Experimental: (§1) To a portion of compound (50 μl, 10 MBq/ml) was added an equal volume of plasma (rat or human) or saline. The mixtures were incubated at 37° C. and the stability measured by HPLC (system C) at 0, 30 and 120 minutes. The saline dilution acted as a control.

[4] = rat, plasma, 2 h
Experimental: as §1

[5] = Aged Clots: injected 60 min post-induction
[6] = Fresh Clots: injected 5 min post-induction

Substance	% specific uptake [1] [%]	% retained (no thrombin) [1] [%]	% retained (with thrombin) [1] [%]	Clot/blood ([2]; Aged Clots)	Clot/heart ([2]; Aged Clots)	Clot/liver ([2]; Aged Clots)	Clot/lung ([2]; Aged Clots)	% id/g (clot) [2, 5] [% id/g]	Rel. Conc. (cpm/g of clot by dose/g animal) [2, 5]	Clot/blood ([2]; Fresh Clots)	Clot/heart ([2]; Fresh Clots)	Clot/liver ([2]; Fresh Clots)	Clot/lung ([2]; Fresh Clots)	% id/g (clot) [2, 6] [% id/g]	Rel. Conc. (cpm/g of clot by dose/g animal) [2, 6]	% intact at 120 mins [3] [%]	% intact at 120 mins [4] [%]	RC (in vivo clot uptake) [2]
Ac-NQEAVSPYTLLKG-Pn44 (also: 99mTc complex) [^99mTc-Cmpd 12]	34.5	0.3	34.8	19	75	7	15	4.1 ± 1.2	11.2 ± 3.4	20	31	8	17	7.3 ± 4.1	19.8 ± 11.0	>90	>90	
Fmoc-NQEQVSPYTLLKG-Pn216 (also: 99mTc complex) [^99mTc-Cmpd 9]	42.8	2.7	44.5	8	21	6	7	3.7 ± 0.4	11.4 ± 1.5	13	32	13	12	8.8 ± 3.6	24.8 ± 9.6			
Fmoc-NQQQ(D-V)S(OMe)PLG-Pn216 [^99mTc-Cmpd 37]	12.8	0.2	13.0	0.4	2	9	1	0.2 ± 0.03	0.5 ± 0.1	0.6	1	1	0.7	0.4 ± 0.2	0.9 ± 0.4			
NQEQVSPYTLLK [^123I-Cmpd 1, reference compound]	12.6	2.0	14.6							1				0.5 ± 0.1	1.6 ± 0.4			1.5
Pn44-CO(CH2)3CO-NQEQVSPYTLLKG-NH2 ({Pn44-Glutaryl}-NQEQVSPYTLLKG-NH2; also: 99mTc complex) [^99mTc-Cmpd 38]	20.3	0.7	21.0	3	1	2	0.5	0.8 ± 0.3	2.4 ± 0.7	5	15	3	6	1.9 ± 0.5	5.4 ± 1.5			

From US7049289B1, “Labelled glutamine and lysine analogues” (Amersham PLC, priority 1998, dated 2006)
